{"source": "PubChem BioAssay AID1845211", "about": "(Molecular Pharmacology Branch, DTP, NCI, 2023)", "system": "NCI-H322M multicellular tumor spheroids, viability (% test/control)", "test": "Anticancer human tumor NCI-H322M cell line growth inhibition;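 on viability, T/C: spheroids exposed to compound for seven days before readout; 100% = DMSO vehicle control wells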", "conditions": "for IC50: curve of first compound; for viability, T/C: stronger effect = lower value", "how_it_was_run": "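Complex spheroids of malignant cells with endothelial cells and mesenchymal stem cells; agents alone or combined, from near clinical Cmax (or 10 microM if unknown) down in half-log steps, 0.25% DMSO final.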"}
{"compound": "CC1COCCN1c1cc(-c2ccnn2C)c2ccnc(-c3ccn[nH]3)c2n1", "note": "(stereo not given) + CC[C@@]1(O)C(=O)OCc2c1cc1n(c2=O)Cc2cc3c(CN(C)C)c(O)ccc3nc2-1", "values": [{"measurement": "IC50", "setting": "second compound 0.003 µM", "value": "< 31.6", "unit": "nM"}, {"measurement": "IC50", "setting": "second compound 0.00949 µM", "value": "< 31.6", "unit": "nM"}, {"measurement": "IC50", "setting": "second compound 0.03 µM", "value": "< 31.6", "unit": "nM"}, {"measurement": "IC50", "setting": "second compound 0.0949 µM", "value": "< 31.6", "unit": "nM"}, {"measurement": "IC50", "setting": "second compound 0.3 µM", "value": "< 31.6", "unit": "nM"}, {"measurement": "viability, T/C", "setting": "second compound 0.003 µM, first compound 0.0316 µM", "value": 55.8, "unit": "%"}, {"measurement": "viability, T/C", "setting": "second compound 0.003 µM, first compound 0.1 µM", "value": 40.6, "unit": "%"}, {"measurement": "viability, T/C", "setting": "second compound 0.003 µM, first compound 0.316 µM", "value": 35, "unit": "%"}, {"measurement": "viability, T/C", "setting": "second compound 0.003 µM, first compound 1 µM", "value": 32.3, "unit": "%"}, {"measurement": "viability, T/C", "setting": "second compound 0.003 µM, first compound 3.16 µM", "value": 30.8, "unit": "%"}, {"measurement": "viability, T/C", "setting": "second compound 0.003 µM, first compound 10 µM", "value": 38.3, "unit": "%"}, {"measurement": "viability, T/C", "setting": "second compound 0.00949 µM, first compound 0.0316 µM", "value": 51.6, "unit": "%"}, {"measurement": "viability, T/C", "setting": "second compound 0.00949 µM, first compound 0.1 µM", "value": 39.1, "unit": "%"}, {"measurement": "viability, T/C", "setting": "second compound 0.00949 µM, first compound 0.316 µM", "value": 35.5, "unit": "%"}, {"measurement": "viability, T/C", "setting": "second compound 0.00949 µM, first compound 1 µM", "value": 32.6, "unit": "%"}, {"measurement": "viability, T/C", "setting": "second compound 0.00949 µM, first compound 3.16 µM", "value": 32.9, "unit": "%"}, {"measurement": "viability, T/C", "setting": "second compound 0.00949 µM, first compound 10 µM", "value": 34.5, "unit": "%"}, {"measurement": "viability, T/C", "setting": "second compound 0.03 µM, first compound 0.0316 µM", "value": 43.8, "unit": "%"}, {"measurement": "viability, T/C", "setting": "second compound 0.03 µM, first compound 0.1 µM", "value": 32.6, "unit": "%"}, {"measurement": "viability, T/C", "setting": "second compound 0.03 µM, first compound 0.316 µM", "value": 30.8, "unit": "%"}, {"measurement": "viability, T/C", "setting": "second compound 0.03 µM, first compound 1 µM", "value": 30.4, "unit": "%"}, {"measurement": "viability, T/C", "setting": "second compound 0.03 µM, first compound 3.16 µM", "value": 32.1, "unit": "%"}, {"measurement": "viability, T/C", "setting": "second compound 0.03 µM, first compound 10 µM", "value": 35.9, "unit": "%"}, {"measurement": "viability, T/C", "setting": "second compound 0.0949 µM, first compound 0.0316 µM", "value": 33.6, "unit": "%"}, {"measurement": "viability, T/C", "setting": "second compound 0.0949 µM, first compound 0.1 µM", "value": 28.1, "unit": "%"}, {"measurement": "viability, T/C", "setting": "second compound 0.0949 µM, first compound 0.316 µM", "value": 26.6, "unit": "%"}, {"measurement": "viability, T/C", "setting": "second compound 0.0949 µM, first compound 1 µM", "value": 26.9, "unit": "%"}, {"measurement": "viability, T/C", "setting": "second compound 0.0949 µM, first compound 3.16 µM", "value": 28.1, "unit": "%"}, {"measurement": "viability, T/C", "setting": "second compound 0.0949 µM, first compound 10 µM", "value": 29.9, "unit": "%"}, {"measurement": "viability, T/C", "setting": "second compound 0.3 µM, first compound 0.0316 µM", "value": 23.1, "unit": "%"}, {"measurement": "viability, T/C", "setting": "second compound 0.3 µM, first compound 0.1 µM", "value": 18.9, "unit": "%"}, {"measurement": "viability, T/C", "setting": "second compound 0.3 µM, first compound 0.316 µM", "value": 19.8, "unit": "%"}, {"measurement": "viability, T/C", "setting": "second compound 0.3 µM, first compound 1 µM", "value": 23.6, "unit": "%"}, {"measurement": "viability, T/C", "setting": "second compound 0.3 µM, first compound 3.16 µM", "value": 20.1, "unit": "%"}, {"measurement": "viability, T/C", "setting": "second compound 0.3 µM, first compound 10 µM", "value": 27.7, "unit": "%"}]}
